Experimental data reported in patent publication US8614219B2, “Substituted pyrimidin-4-one derivatives” (Sanofi-aventis, priority 2008, dated 2013).

These compounds were tested against GSK3β (Homo sapiens, UniProt P49841) (assay: Inhibitory activity against GSK3β (33P-ATP phosphorylation of prephosphorylated GS1 peptide, four protocols)). Settings: protocol 4: commercial GSK3beta (Millipore), 7.5 μM GS1 peptide, 10 μM ATP, 50 mM Hepes pH 7.2, 90 minutes at room temperature.
Format: biochemical
Experimental: Four different protocols can be used. In a first protocol: 7.5 μM of prephosphorylated GS1 peptide and 10 μM ATP (containing 300,000 cpm of ^33P-ATP) were incubated in 25 mM Tris-HCl, pH 7.5, 0.6 mM DTT, 6 mM MgCl2, 0.6 mM EGTA, 0.05 mg/ml BSA buffer for 1 hour at room temperature in the presence of GSK3beta (total reaction volume: 100 microliters). In a second protocol: 4.1 μM of prephosphorylated GS1 peptide and 42 μM ATP (containing 260,000 cpm ^33P-ATP) were incubated in 80 mM Mes-NaOH, pH 6.5, 1 mM Mg acetate, 0.5 mM EGTA, 5 mM 2-mercaptoethanol, 0.02% Tween 20, 10% glycerol buffer for 2 hours at room temperature in the presence of GSK3beta. In a third protocol: 7.5 μM of prephosphorylated GS1 peptide and 10 μM ATP (containing 300,000 cpm of ^33P-ATP) were incubated in 50 mM Hepes, pH 7.2, 1 mM DTT, 1 mM MgCl2, 1 mM EGTA, 0.01% Tween 20 buffer for one hour at room temperature in the presence of GSK3beta (total reaction volume: 100 microliters). In a fourth protocol: 7.5 μM of prephosphorylated GS1 peptide and 10 μM ATP (containing 300,000 cpm of ^33P-ATP) were incubated in 50 mM Hepes, pH 7.2, 1 mM DTT, 1 mM MgCl2, 1 mM EGTA, 0.01% Tween 20 buffer for 90 minutes at room temperature in the presence of commercial GSK3beta (Millipore) (total reaction volume: 100 microliters). Inhibitors were solubilized in DMSO (final solvent concentration in the reaction medium, 1%). The reaction was stopped with 100 microliters of a solution made of 25 g polyphosphoric acid (85% P2O5), 126 ml 85% H3PO4, H2O to 500 ml and then diluted to 1:100 before use. An aliquot of the reaction mixture was then transferred to Whatman P81 cation exchange filters and rinsed with the solution described above. Incorporated ^33P radioactivity was determined by liquid scintillation spectrometry. The phosphorylated GS-1 peptide had the following sequence: NH2-[…](P)EDEE-COOH. (Woodgett, J. R. (1989) Analytical Biochemistry 180, 237-241.

Chain of GSK3β (P49841 whole entry): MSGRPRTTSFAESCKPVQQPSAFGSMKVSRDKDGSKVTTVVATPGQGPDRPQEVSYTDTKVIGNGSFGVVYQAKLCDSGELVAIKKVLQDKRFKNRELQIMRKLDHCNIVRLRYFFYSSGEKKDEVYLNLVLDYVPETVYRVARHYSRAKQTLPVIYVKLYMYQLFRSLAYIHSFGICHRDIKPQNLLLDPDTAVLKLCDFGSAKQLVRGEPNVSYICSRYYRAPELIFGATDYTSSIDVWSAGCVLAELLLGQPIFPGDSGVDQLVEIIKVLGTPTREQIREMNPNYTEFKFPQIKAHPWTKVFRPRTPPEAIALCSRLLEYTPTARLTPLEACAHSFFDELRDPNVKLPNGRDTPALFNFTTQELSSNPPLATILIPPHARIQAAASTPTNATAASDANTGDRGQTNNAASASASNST

IC50 [nM] | SMILES
27 | COc1ccccc1NC(=O)C1CCCn2c1nc(-c1ccncn1)cc2=O (racemic) [compound No. 1 of table 1, (+/−)-4-oxo-2-pyrimidin-4-yl-6,7,8,9-tetrahydro-4H-pyrido[1,2-a]pyrimidine-9-carboxylic acid N-(2-methoxy-phenyl)-amide]
30 | COc1cc(Cl)ccc1C(=O)NCC1CCCCn2c1nc(-c1ccncn1)cc2=O (racemic) [compound No. 2 of table 2, (+/−)-4-Chloro-2-methoxy-N-(4-oxo-2-pyrimidin-4-yl-4,6,7,8,9,10-hexahydro-pyrimido[1,2-a]azepin-10-ylmethyl)-benzamide]
19 | COc1cc(Cl)ccc1C(=O)NCC1CCCn2c1nc(-c1ccncn1)cc2=O (racemic) [compound No. 8 of table 1, (+/−)-4-Chloro-2-methoxy-N-(4-oxo-2-pyrimidin-4-yl-6,7,8,9-tetrahydro-4H-pyrido[1,2-a]pyrimidin-9-ylmethyl)-benzamide]
